Results reported in ChEMBL document CHEMBL1132729.
The source made the active and inactive calls. The rule behind the calls is not given here.

Columns and labels:
[1] = biological target: T1, Lipoprotein lipase (Bos taurus) (UniProt P11151); experiment: Percent inhibition of compound against Lipoprotein lipase(LPL) was evaluated; No significant inhibition
T1 sequence (whole entry): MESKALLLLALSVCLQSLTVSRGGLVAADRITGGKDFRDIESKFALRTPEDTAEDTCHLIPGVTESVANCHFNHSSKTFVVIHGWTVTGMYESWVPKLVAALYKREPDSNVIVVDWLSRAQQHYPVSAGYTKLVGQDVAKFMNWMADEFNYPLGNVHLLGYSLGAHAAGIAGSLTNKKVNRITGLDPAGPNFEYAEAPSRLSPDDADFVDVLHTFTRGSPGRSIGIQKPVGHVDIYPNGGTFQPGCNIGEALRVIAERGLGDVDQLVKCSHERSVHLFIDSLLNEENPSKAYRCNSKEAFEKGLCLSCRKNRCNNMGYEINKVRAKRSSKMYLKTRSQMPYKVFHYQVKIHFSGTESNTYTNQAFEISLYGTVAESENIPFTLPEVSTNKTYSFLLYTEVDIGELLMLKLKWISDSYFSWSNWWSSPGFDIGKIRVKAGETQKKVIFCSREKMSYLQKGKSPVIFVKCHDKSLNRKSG

[2] = biological target: T1, Lipoprotein lipase (Bos taurus); experiment: Percent inhibition of compound against Lipoprotein lipase(LPL) at 3h was evaluated; conditions: concentration not given here
[3] = biological target: T1, Lipoprotein lipase (Bos taurus); experiment: Percent inhibition of compound against Lipoprotein lipase(LPL) at 10 uM was evaluated

Question: For `CCCCCCS(=O)(=O)ON1C(=O)CCC1=O`, which inhibition [1] is on record?
Answer: No inhibition

Question: Which inhibition [2] does the source give for `CCCCCCCCCCCCCCCCS(=O)(=O)F` here?
Answer: 90%

Question: And the inhibition [3]?
Answer: 50%

Question: How did the inhibition [1] turn out when `CCCCCCCCCCCCS(=O)(=O)F` was run?
Answer: inactive

Question: `CCCCCCS(=O)(=O)Oc1ccc([N+](=O)[O-])cc1` was tested. Which inhibition [1] did it give?
Answer: No inhibition
